From patent US20080318977A1, “Condensed Pyridines as Kinase Inhibitors” (Palau Pharma, S.A., priority 2004, published 2008)

Molecular target: T1, p38α (Homo sapiens, UniProt Q16539)
T1 construct: GST-tagged fusion protein corresponding to full-length human p38α; purchased Upstate 14-251; host or cells: E. coli
Test: Inhibition of p38α enzyme activity (IMAP fluorescence polarisation kinase assay)
Assay type: biochemical
Conditions: at 1 μM compound; ATP 20 μM; 2 h at RT
Experimental: Inhibition of p38α Enzyme Activity:
Compound stocks in 100% DMSO are first diluted in DMSO to a concentration of 1×10^−3 up to 3.2×10^−8 M and then further diluted in kinase assay buffer (10 mM Tris-HCl, pH 7.2, 10 mM MgCl2, 0.01% tween 20, 0.05% NaN3, 1 mM dithiothreitol) to a concentration range of 4×10^−5 up to 1.3×10^−9 M. Of each compound solution 5 μL is transferred into a 384-wells black Optiplate (Packard, 6007279), followed by the addition of 5 μL of ATP (Boehringer, 519987), 5 μL of Fluorescein-labeled EGFR (Epidermal Growth Factor Receptor) peptide substrate and 5 μL of active p38 cc kinase (GST-tagged fusion protein corresponding to full-length human p38α; expressed in E. coli by Upstate, 14-251), all diluted in kinase assay buffer (see final concentrations in Table 1). The mixture is incubated for 2 h at room temperature (RT). The reaction is stopped by the addition of 60 μL of IMAP binding reagent, which has been diluted 400-fold in IMAP binding buffer (stock concentration 5 times diluted in Milli Q). After incubation for 30 min at RT, FP is measured on an Analyst™ multimode fluorescence plate reader (Molecular Devices) at excitation wavelength of 485 nm and emission wavelength of 530 nm (1 sec/well).
Data handling is performed as follows: percentage effects are calculated based on no-p38-enzyme-addition as the maximum inhibitory effect and with p38 enzyme addition as the minimum inhibitory effect. In each experiment, individual compound concentrations are tested in duplicate and percentage effect is calculated for each concentration.

T1 sequence (Q16539 whole entry, the tested form may be a part): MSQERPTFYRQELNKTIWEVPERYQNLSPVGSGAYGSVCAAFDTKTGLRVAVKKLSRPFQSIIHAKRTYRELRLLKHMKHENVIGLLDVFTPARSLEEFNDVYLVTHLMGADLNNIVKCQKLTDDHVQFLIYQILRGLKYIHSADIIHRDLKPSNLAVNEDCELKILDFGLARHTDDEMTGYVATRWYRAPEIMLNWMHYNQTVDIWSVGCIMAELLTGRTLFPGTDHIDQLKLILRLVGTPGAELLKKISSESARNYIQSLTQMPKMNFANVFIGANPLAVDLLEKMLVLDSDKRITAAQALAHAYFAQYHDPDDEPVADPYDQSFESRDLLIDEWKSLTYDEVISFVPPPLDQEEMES

## Cn1cnc2nc(-c3ccc(F)cc3)c(-c3ccncc3)c(-c3ccc(F)cc3)c21 [Example 10, 5,7-Bis(4-fluorophenyl)-1-methyl-6-(4-pyridyl)imidazo[4,5-b]pyridine]
  inhibition at 1 µM: > 50%

## Cn1ccc2nc(-c3ccc(F)cc3)c(-c3ccncc3)c(-c3ccc(F)cc3)c21 [Example 37, 5,7-Bis-(4-fluoro-phenyl)-1-methyl-6-pyridin-4-yl-1H-pyrrolo[3,2-b]pyridine]
  inhibition at 1 µM: > 50%

## Cn1c(C(N)=O)cc2nc(-c3ccc(F)cc3)c(-c3ccncc3)c(-c3ccc(F)cc3)c21 [Example 12, 5,7-Bis(4-fluorophenyl)-1-methyl-6-(4-pyridyl)pyrrolo[3,2-b]pyridine-2-carboxamide]
  inhibition at 1 µM: > 50%

## Cn1c(C(C)(C)O)nc2nc(-c3ccc(F)cc3)c(-c3ccncc3)c(-c3ccc(F)cc3)c21 [Example 18, 2-[5,7-Bis(4-fluorophenyl)-1-methyl-6-(4-pyridyl)imidazo[4,5-b]pyridin-2-yl]propan-2-ol]
  inhibition at 1 µM: > 50%

## COC(=O)c1cc2nc(-c3ccc(F)cc3)c(-c3ccncc3)c(-c3ccc(F)cc3)c2n1C [Example 3, Methyl 5,7-bis(4-fluorophenyl)-1-methyl-6-(4-pyridyl)pyrrolo[3,2-b]pyridine-2-carboxylate]
  inhibition at 1 µM: > 50%

## O=C(NCCN1CCCCC1)c1cc2c(-c3ccc(F)cc3)c(-c3ccncc3)c(-c3ccc(F)cc3)nc2o1 [Example 26, 4,6-Bis-(4-fluoro-phenyl)-5-pyridin-4-yl-furo[2,3-b]pyridine-2-carboxylic acid (2-piperidin-1-yl-ethyl)-amide]
  inhibition at 1 µM: > 50%

## CCN(CC(=O)OC)Cc1cc2nc(-c3ccc(F)cc3)c(-c3ccncc3)c(-c3ccc(F)cc3)c2n1C [Example 35, {[5,7-Bis-(4-fluoro-phenyl)-1-methyl-6-pyridin-4-yl-1H-pyrrolo[3,2-b]pyridin-2-ylmethyl]-N-ethyl-amino}-acetic acid methyl ester]
  inhibition at 1 µM: > 50%

## Cn1c(C(=O)NCCN2CCOCC2)cc2nc(-c3ccc(F)cc3)c(-c3ccncc3)c(-c3ccc(F)cc3)c21 [Example 30, 5,7-Bis-(4-fluoro-phenyl)-1-methyl-6-pyridin-4-yl-1H-pyrrolo[3,2-b]pyridine-2-carboxylic acid (2-morpholin-4-yl-ethyl)-amide]
  inhibition at 1 µM: > 50%

## COC(=O)c1n[nH]c2c(-c3ccc(F)cc3)c(-c3ccncc3)c(-c3ccc(F)cc3)nc12 [Example 39, 5,7-Bis-(4-fluoro-phenyl)-6-pyridin-4-yl-1H-pyrazolo[4,3-b]pyridine-3-carboxylic acid methyl ester]
  inhibition at 1 µM: > 50%

## COCCNCc1cc2nc(-c3ccc(F)cc3)c(-c3ccncc3)c(-c3ccc(F)cc3)c2n1C [Example 32, [5,7-Bis-(4-fluoro-phenyl)-1-methyl-6-pyridin-4-yl-1H-pyrrolo[3,2-b]pyridin-2-ylmethyl]-(2-methoxy-ethyl)-amine]
  inhibition at 1 µM: > 50%

## COCCNC(=O)c1cc2nc(-c3ccc(F)cc3)c(-c3ccncc3)c(-c3ccc(F)cc3)c2n1C [Example 28, 5,7-Bis-(4-fluoro-phenyl)-1-methyl-6-pyridin-4-yl-1H-pyrrolo[3,2-b]pyridine-2-carboxylic acid (2-methoxy-ethyl)-amide]
  inhibition at 1 µM: > 50%

## Cn1c(CO)cc2nc(-c3ccc(F)cc3)c(-c3ccncc3)c(-c3ccc(F)cc3)c21 [Example 6, [5,7-Bis(4-fluorophenyl)-1-methyl-6-(4-pyridyl)pyrrolo[3,2-b]pyridin-2-yl]methanol]
  inhibition at 1 µM: > 50%

## COC(=O)c1cc2c(-c3ccc(F)cc3)c(-c3ccncc3)c(-c3ccc(F)cc3)nc2o1 [Example 2, Methyl 4,6-bis(4-fluorophenyl)-5-(4-pyridyl)furo[2,3-b]pyridine-2-carboxylate]
  inhibition at 1 µM: > 50%

## Cc1noc2nc(-c3ccc(F)cc3)c(-c3ccnc(N[C@@H](C)c4ccccc4)n3)cc12 [Example 42, (S)-{4-[6-(4-Fluoro-phenyl)-3-methyl-isoxazolo[5,4-b]pyridin-5-yl]-pyrimidin-2-yl}-(1-phenyl-ethyl)-amine]
  inhibition at 1 µM: > 50%

## Cn1c(C(=O)N2CCOCC2)cc2nc(-c3ccc(F)cc3)c(-c3ccncc3)c(-c3ccc(F)cc3)c21 [Example 14, [5,7-Bis(4-fluorophenyl)-1-methyl-6-(4-pyridyl)pyrrolo[3,2-b]pyridin-2-yl]morpholin-4-ylmethanone]
  inhibition at 1 µM: > 50%

## CCCNC(=O)c1cc2nc(-c3ccc(F)cc3)c(-c3ccncc3)c(-c3ccc(F)cc3)c2n1C [Example 29, 5,7-Bis-(4-fluoro-phenyl)-1-methyl-6-pyridin-4-yl-1H-pyrrolo[3,2-b]pyridine-2-carboxylic acid propylamide]
  inhibition at 1 µM: > 50%

## O=C(NCCN1CCOCC1)c1cc2c(-c3ccc(F)cc3)c(-c3ccncc3)c(-c3ccc(F)cc3)nc2o1 [Example 25, 4,6-Bis-(4-fluoro-phenyl)-5-pyridin-4-yl-furo[2,3-b]pyridine-2-carboxylic acid (2-morpholin-4-yl-ethyl)-amide]
  inhibition at 1 µM: > 50%

## Cn1c(CO)nc2nc(-c3ccc(F)cc3)c(-c3ccncc3)c(-c3ccc(F)cc3)c21 [Example 7, [5,7-Bis(4-fluorophenyl)-1-methyl-6-(4-pyridyl)imidazo[4,5-b]pyridin-2-yl]methanol]
  inhibition at 1 µM: > 50%

## Cn1c(CNCC2CC2)cc2nc(-c3ccc(F)cc3)c(-c3ccncc3)c(-c3ccc(F)cc3)c21 [Example 33, [5,7-Bis-(4-fluoro-phenyl)-1-methyl-6-pyridin-4-yl-1H-pyrrolo[3,2-b]pyridin-2-ylmethyl]-cyclopropylmethyl-amine]
  inhibition at 1 µM: > 50%

## CCOC(=O)c1nc2nc(-c3ccc(F)cc3)c(-c3ccncc3)c(-c3ccc(F)cc3)c2n1C [Example 5, Ethyl 5,7-bis(4-fluorophenyl)-1-methyl-6-(4-pyridyl)imidazo[4,5-b]pyridine-2-carboxylate]
  inhibition at 1 µM: > 50%

## COCCCNc1nccc(-c2cc3c(C)noc3nc2-c2ccc(F)cc2)n1 [Example 41, {4-[6-(4-Fluoro-phenyl)-3-methyl-isoxazolo[5,4-b]pyridin-5-yl]-pyrimidin-2-yl}-(3-methoxy-propyl)-amine]
  inhibition at 1 µM: > 50%

## Cn1c(C(C)(C)O)cc2nc(-c3ccc(F)cc3)c(-c3ccncc3)c(-c3ccc(F)cc3)c21 [Example 20, 2-[5,7-Bis(4-fluorophenyl)-1-methyl-6-(4-pyridyl)pyrrolo[3,2-b]pyridin-2-yl]propan-2-ol]
  inhibition at 1 µM: > 50%

## COc1ccc(-c2nc3cc[nH]c3cc2-c2ccnc(NCC3CC3)n2)cc1 [Example 46, Cyclopropylmethyl-{4-[5-(4-methoxy-phenyl)-1H-pyrrolo[3,2-b]pyridin-6-yl]-pyrimidin-2-yl}-amine]
  inhibition at 1 µM: > 50%

## Cc1nc2cc(-c3ccnc(NCC4CC4)n3)c(-c3ccc(F)cc3)nc2s1 [Example 52, Cyclopropylmethyl-{4-[5-(4-fluoro-phenyl)-2-methyl-thiazolo[5,4-b]pyridin-6-yl]-pyrimidin-2-yl}-amine]
  inhibition at 1 µM: > 50%

## COCCCNc1nccc(-c2cc3c(C)nsc3nc2-c2ccc(F)cc2)n1 [Example 44, {4-[6-(4-Fluoro-phenyl)-3-methyl-isothiazolo[5,4-b]pyridin-5-yl]-pyrimidin-2-yl}-(3-methoxy-propyl)-amine]
  inhibition at 1 µM: > 50%

## O=C(NCCO)c1n[nH]c2c(-c3ccc(F)cc3)c(-c3ccncc3)c(-c3ccc(F)cc3)nc12 [Example 54, 5,7-Bis-(4-fluoro-phenyl)-6-pyridin-4-yl-1H-pyrazolo[4,3-b]pyridine-3-carboxylic acid (2-hydroxy-ethyl)-amide]
  inhibition at 1 µM: > 50%

## COc1ccc(-c2nc3cc[nH]c3cc2-c2ccnc(N[C@@H](C)c3ccccc3)n2)cc1 [Example 47, (S)-{4-[5-(4-Methoxy-phenyl)-1H-pyrrolo[3,2-b]pyridin-6-yl]-pyrimidin-2-yl}-(1-phenyl-ethyl)-amine]
  inhibition at 1 µM: > 50%

## Cc1nc2cc(-c3ccnc(N[C@@H](C)c4ccccc4)n3)c(-c3ccc(F)cc3)nc2s1 [Example 56, (S)-{4-[5-(4-Fluoro-phenyl)-2-methyl-thiazolo[5,4-b]pyridin-6-yl]-pyrimidin-2-yl}-(1-phenyl-ethyl)-amine]
  inhibition at 1 µM: > 50%

## CC(=O)c1cc2nc(-c3ccc(F)cc3)c(-c3ccncc3)c(-c3ccc(F)cc3)c2n1C [Example 21, 1-[5,7-Bis(4-fluorophenyl)-1-methyl-6-(4-pyridyl)pyrrolo[3,2-b]pyridin-2-yl]ethanone]
  inhibition at 1 µM: > 50%

## Cc1noc2nc(-c3ccc(F)cc3)c(-c3ccnc(NCC4CC4)n3)cc12 [Example 40, Cyclopropylmethyl-{4-[6-(4-fluoro-phenyl)-3-methyl-isoxazolo[5,4-b]pyridin-5-yl]-pyrimidin-2-yl}-amine]
  inhibition at 1 µM: > 50%

## Fc1ccc(-c2nc3cn[nH]c3c(-c3ccc(F)cc3)c2-c2ccncc2)cc1 [Example 53, 5,7-Bis-(4-fluoro-phenyl)-6-pyridin-4-yl-1H-pyrazolo[4,3-b]pyridine]
  inhibition at 1 µM: > 50%
